In ChEMBL document CHEMBL1201862, “PubChem BioAssay data set” (2004):
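Five concentrations, 48 hours, 96-well plates. GI50 = concentration required for 50% inhibition of growth.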 Active and inactive are the calls of the source. No stated cut-off is given here; in the data, active = GI50 up to about 1.1 µM and inactive = higher.

Columns and labels:
Assay in all cases: NCI anticancer screen, dose series, 48 h
SK-MEL-28 = test system: SK-MEL-28
NCI-H23 = test system: NCI-H23
UO-31 = test system: UO-31
RPMI-8226 = test system: RPMI-8226
UACC-62 = test system: UACC-62
COLO 205 = test system: COLO 205
OVCAR-5 = test system: OVCAR-5
CCRF-CEM = test system: CCRF-CEM
MOLT-4 = test system: MOLT-4
SN12C = test system: SN12C
RXF 393 = test system: RXF 393
HT-29 = test system: HT-29
SK-OV-3 = test system: SK-OV-3
SNB-19 = test system: SNB-19
OVCAR-8 = test system: OVCAR-8
K562 = test system: K562
HL-60 = test system: HL-60
IGROV-1 = test system: IGROV-1
HOP-62 = test system: HOP-62
HCT-116 = test system: HCT-116

Measured: GI50

COc1ccccc1NC(=O)C(=O)C(C(=O)c1ccccc1F)C1OC(=O)c2ccccc21 (stereo not given)
inactive: SK-MEL-28 46.3 µM | NCI-H23 20 µM | UO-31 32.4 µM | RPMI-8226 20.2 µM | UACC-62 15.8 µM | COLO 205 19.2 µM | OVCAR-5 45.1 µM | CCRF-CEM 16.1 µM | MOLT-4 15.5 µM | SN12C 24.2 µM | RXF 393 42.9 µM | HT-29 23.9 µM | SK-OV-3 35.6 µM | SNB-19 19.3 µM | OVCAR-8 19.9 µM | K562 32.7 µM | HL-60 20.3 µM | IGROV-1 52.6 µM | HOP-62 30.5 µM | HCT-116 22 µM

O=S(=O)(c1ccc(I)cc1)N(c1ccccc1)S(=O)(=O)C(F)(F)C(F)(F)C(F)(F)C(F)(F)F
inactive: SK-MEL-28 40.6 µM | NCI-H23 43.2 µM | UO-31 55.8 µM | RPMI-8226 42.7 µM | UACC-62 25.5 µM | COLO 205 40 µM | OVCAR-5 24.9 µM | CCRF-CEM 40.9 µM | MOLT-4 39.4 µM | SN12C > 100 µM | RXF 393 24.8 µM | HT-29 22.4 µM | SK-OV-3 26.4 µM | SNB-19 74.3 µM | OVCAR-8 48 µM | K562 41.6 µM | HL-60 97.7 µM | IGROV-1 > 100 µM | HOP-62 24.3 µM | HCT-116 19.9 µM

COc1cccc(CC2Cc3ccccc3CC(=O)N2)c1 (stereo not given)
inactive: SK-MEL-28 54.2 µM | NCI-H23 42.6 µM | UO-31 20.8 µM | RPMI-8226 37.6 µM | UACC-62 39.8 µM | COLO 205 74.1 µM | OVCAR-5 11.7 µM | CCRF-CEM 58.3 µM | MOLT-4 31.3 µM | SN12C 69 µM | RXF 393 26.8 µM | HT-29 92.7 µM | SK-OV-3 62.8 µM | SNB-19 90.8 µM | OVCAR-8 53.8 µM | K562 80 µM | HL-60 40.1 µM | IGROV-1 16.9 µM | HOP-62 9.18 µM | HCT-116 49 µM

O=C(CC1Sc2ccccc2NC1=O)Nc1ccccc1[N+](=O)[O-] (stereo not given)
inactive: SK-MEL-28 > 100 µM | NCI-H23 > 100 µM | UO-31 > 100 µM | RPMI-8226 > 100 µM | UACC-62 > 100 µM | COLO 205 > 100 µM | OVCAR-5 > 100 µM | CCRF-CEM > 100 µM | MOLT-4 4.33 µM | SN12C > 100 µM | RXF 393 > 100 µM | HT-29 > 100 µM | SK-OV-3 > 100 µM | SNB-19 > 100 µM | OVCAR-8 > 100 µM | K562 > 100 µM | HL-60 > 100 µM | IGROV-1 > 100 µM | HOP-62 > 100 µM | HCT-116 > 100 µM

O=C(OCCO)C1CC2CC1C1(C2)OCCO1 (stereo not given)
inactive: SK-MEL-28 > 100 µM | NCI-H23 > 100 µM | UO-31 > 100 µM | RPMI-8226 > 100 µM | UACC-62 > 100 µM | COLO 205 > 100 µM | OVCAR-5 > 100 µM | CCRF-CEM > 100 µM | MOLT-4 > 100 µM | SN12C > 100 µM | RXF 393 > 100 µM | HT-29 > 100 µM | SK-OV-3 > 100 µM | SNB-19 > 100 µM | OVCAR-8 > 100 µM | K562 > 100 µM | HL-60 > 100 µM | IGROV-1 > 100 µM | HOP-62 > 100 µM | HCT-116 > 100 µM

COc1ccc(CCn2nccc2C)cc1
inactive: SK-MEL-28 > 100 µM | NCI-H23 > 100 µM | UO-31 59.6 µM | RPMI-8226 > 100 µM | UACC-62 > 100 µM | COLO 205 > 100 µM | OVCAR-5 > 100 µM | CCRF-CEM > 100 µM | MOLT-4 > 100 µM | SN12C 80.9 µM | RXF 393 > 100 µM | HT-29 > 100 µM | SK-OV-3 > 100 µM | SNB-19 > 100 µM | OVCAR-8 > 100 µM | K562 > 100 µM | HL-60 > 100 µM | IGROV-1 > 100 µM | HOP-62 > 100 µM | HCT-116 > 100 µM

NCCCCCC(CCN)SCC1OC(n2cnc3c(N)ncnc32)C(O)C1O (stereo not given)
inactive: SK-MEL-28 578 µM | NCI-H23 764 µM | UO-31 394 µM | RPMI-8226 292 µM | UACC-62 537 µM | COLO 205 > 798 µM | OVCAR-5 > 1500 µM | CCRF-CEM 891 µM | MOLT-4 551 µM | SN12C > 574 µM | RXF 393 1060 µM | HT-29 569 µM | SK-OV-3 927 µM | SNB-19 615 µM | OVCAR-8 > 708 µM | K562 436 µM | HL-60 519 µM | IGROV-1 1180 µM | HOP-62 > 809 µM | HCT-116 233 µM

CC(=O)Oc1ccccc1[C@H]1CC(=O)C[C@H](c2ccccc2OC(C)=O)C12C(=O)c1ccccc1C2=O
inactive: SK-MEL-28 17 µM | NCI-H23 26.4 µM | UO-31 36.3 µM | RPMI-8226 59.6 µM | UACC-62 13 µM | COLO 205 22.3 µM | OVCAR-5 44.2 µM | CCRF-CEM 10.9 µM | MOLT-4 17.8 µM | SN12C 37.4 µM | RXF 393 24.6 µM | HT-29 29.2 µM | SK-OV-3 43 µM | SNB-19 60.4 µM | OVCAR-8 39.6 µM | K562 12.7 µM | HL-60 > 100 µM | IGROV-1 44.5 µM | HOP-62 30.4 µM | HCT-116 29.4 µM

CSCC[C@@H](NC(=O)[C@H](CC(C)C)NC(=O)C(Cc1cnc[nH]1)NC(=O)CNC(=O)[C@@H](NC(=O)[C@H](C)NC(=O)[C@H](Cc1cn(C=O)c2ccccc12)NC(=O)[C@H](CCC(N)=O)NC(=O)[C@@H](N)CC(N)=O)C(C)C)C(N)=O (stereo not given in full)
inactive: SK-MEL-28 > 100 µM | NCI-H23 > 100 µM | UO-31 > 100 µM | RPMI-8226 > 100 µM | UACC-62 > 100 µM | COLO 205 > 100 µM | OVCAR-5 > 100 µM | CCRF-CEM > 100 µM | MOLT-4 > 100 µM | SN12C > 100 µM | RXF 393 > 100 µM | HT-29 > 100 µM | SK-OV-3 > 100 µM | SNB-19 > 100 µM | OVCAR-8 > 100 µM | K562 > 100 µM | HL-60 > 100 µM | IGROV-1 > 100 µM | HOP-62 > 100 µM | HCT-116 > 100 µM

COc1c(O)c(C=O)c2c(O)c(-c3c(C)cc4c(C(C)C)c(OC)c(O)c(C=O)c4c3O)c(C)cc2c1C(C)C [6,6'-METHOXYGOSSYPOL]
inactive: SK-MEL-28 6.61 µM | NCI-H23 3.61 µM | UO-31 3.3 µM | RPMI-8226 4.32 µM | UACC-62 11.9 µM | COLO 205 1.89 µM | OVCAR-5 7.08 µM | CCRF-CEM 5.16 µM | MOLT-4 7.53 µM | SN12C 2.74 µM | RXF 393 2.52 µM | HT-29 4.13 µM | SK-OV-3 4.19 µM | SNB-19 3.88 µM | OVCAR-8 3.74 µM | K562 11.8 µM | HL-60 4.46 µM | IGROV-1 5.47 µM | HOP-62 2.98 µM | HCT-116 2.61 µM
